Where two headings read alike, the source gives them in different places.
Columns and labels:
[1] = test system: Methanococcus maripaludis; experiment: Inhibition of methane production by Methanococcus maripaludis culture (pressure drop after 24 h); type: cell-based; conditions: for Fold increase of Compound X combined with bromoform as compared to Compound X alone: bromoform 0.12 μM; for Inhibition of methane production by bromoform on its own: bromoform alone at 0.12 μM (very low concentration)
Procedure: For this experiment, bromoform was prepped at 100 mM by adding 8.75 μl bromoform to 991 μl DMSO. This was diluted 10× to generate a 10 mM solution and further diluted to generate 0.12 mM stock solutions. Compound X stock solutions were prepared in DMSO (except for tannic acid, which was diluted in deionized water), to achieve the desired stock solutions required for testing. The experiment was set up by adding 5 ml of M141 medium (https://www.dsmz.de/microorganisms/medium/pdf/DSMZ_Medium141.pdf) to a screw cap Hungate tube followed by the addition of 5 μl Compound X and/or 5 μl bromoform or 5/10 μl DMSO as follows: • Tube 1: DMSO (10 μl) • Tube 2: Bromoform (5 μl, 0.120 mM) (120 nM final)+5 μl DMSO • Tube 3: Compound X (5 μl stock solution)+5 μl DMSO • Tube 4: Bromoform (5 μl 0.120 mM) (120 nM final)+Compound X (5 μl stock solution)
The concentration of Bromoform was fixed at 0.12 μM.
After the addition of the test substances, 500 μl of an overnight M. maripaludis culture was added to each reaction tube. Each tube was gassed with 80% H2/20% CO2 to 240 kPa and incubated at 37° C. for 24 h.
After the 24 h incubation the pressure inside the tube was measured using a manometer. Given that 5 moles of H2/CO2 are consumed to generate 1 mole of CH4 the drop in pressure observed was used to calculate the amount of methane by the control and test reactions from which a percent inhibition was calculated.
Table 1 below summarises the range of concentrations and the fold increase in inhibition of Compound X when tested with bromoform relative to the level of inhibition for Compound X when tested alone.

[2] = test system: rumen fluid; experiment: In vitro rumen fluid fermentation assay (Gas Test), methane by gas chromatography; type: cell-based, cows; conditions: for Synergistic effect in methane inhibition: combined with iodoform
Procedure: Various samples of single species, extracts, two-species combinations, and three-species combinations were assessed for their potential to inhibit methane production. This evaluation was carried out using in vitro fermentation assays known as Gas Tests. In each Gas Test, 250 mg of total meal ration (TMR) comprising 30% grass, 30% corn, and 40% complete feed was introduced into 100 ml serum vials as the substrate for the fermentation process. Rumen fluid, obtained from fistulated cows at the University of Reading, was mixed with degassed reaction buffer (1.6 L) and supplemented with Na2S (82 ml). Subsequently, 30 ml of the rumen fluid/buffer mixture was added to each serum vial.
The test substances were dissolved in 100% ethanol, and 100 μl of each test substance was added to the serum vials containing the rumen fluid/buffer mixture. All test substances and controls were examined in triplicate for each experiment. Once the test substances and controls were added, the vials were sealed with butyl rubber stoppers and aluminium crimps, then incubated at 39° C. for 24 hours. Following incubation, gas samples were collected from both the control and test vials, and methane levels were determined using gas chromatography.
For each test compound, the “percentage inhibition of methane produced” was calculated using the following formula: […]
The test substances underwent evaluation in three independent Gas Tests, and an average percentage inhibition was calculated for each substance.
Synergy between substances was determined using the Bliss Independence Model using the following equation: […]
Where IAB is the predicted percentage methane inhibition of both substances together and IA and IB are the observed percentage methane inhibitions of the individual substances. The predicted percentage methane inhibition of both substances (IAB) and the observed percent methane inhibition of both substances (Iob) are used to calculate the Combination index (Ci) as follows:
If the Ci<1 then the two substances are synergistic.
Synergy between substances was determined using the following calculation:
Where IABC is the predicted percentage methane inhibition of the three substances together and IA, IB and IC are the observed percentage methane inhibitions of the individual substances.
The predicted percentage methane inhibition of the three substances (IABC) and the observed percent methane inhibition of the combination of the three substances (Iob) are used to calculate the Combination index (Ci) as follows: […]

[3] = Bos taurus, sole compound, 25 μM, 24 h, three Gas Tests, read-out: Average of observed methane inhibition (%)
[4] = Bos taurus, 24 h, read-out: Average of observed methane inhibition (%)

SMILES: CCCSSCCC [Dipropyl disulfide, dipropyl disulfide]
- Methane inhibition in combination with Bromoform (%) ([1]; Compound X 1 mM + bromoform 0.12 μM, 24 h): 43.5%
- Fold increase of Compound X combined with bromoform as compared to Compound X alone ([1]; Compound X 1 mM): 1.57 fold
- inhibition at 1000 µM ([1]; Methanococcus maripaludis, Compound X 1 mM alone, 24 h, read-out: Methane inhibition of Compound X as a sole compound (%)): 27.7%
- inhibition at 30 µM ([2]; Bos taurus, sole compound, 30 μM, 24 h, three Gas Tests, read-out: Average of observed methane inhibition (%)): 3%
- Synergistic effect in methane inhibition [2]: synergistic effects were observed

SMILES: CCCCCCC(C=O)=Cc1ccccc1 [α-Hexylcinnamaldehyde]
- Methane inhibition in combination with Bromoform (%) ([1]; Compound X 31.25 μM + bromoform 0.12 μM, 24 h): 97.2%
- Fold increase of Compound X combined with bromoform as compared to Compound X alone ([1]; Compound X 31.25 μM): 97.2 fold
- inhibition at 31.25 µM ([1]; Methanococcus maripaludis, Compound X 31.25 μM alone, 24 h, read-out: Methane inhibition of Compound X as a sole compound (%)): 1%
- inhibition at 25 µM [2, 3]: 8%
- Synergistic effect in methane inhibition [2]: synergistic effects were observed

SMILES: O=C1C[C@@H](c2ccc(O)cc2)Oc2cc(O)cc(O)c21 [Naringenin]
- Methane inhibition in combination with Bromoform (%) ([1]; Compound X 100 μM + bromoform 0.12 μM, 24 h): 90.3%
- Fold increase of Compound X combined with bromoform as compared to Compound X alone ([1]; Compound X 100 μM): 90.3 fold
- inhibition at 100 µM ([1]; Methanococcus maripaludis, Compound X 100 μM alone, 24 h, read-out: Methane inhibition of Compound X as a sole compound (%)): 1%
- inhibition at 100 µM ([2]; Bos taurus, sole compound, 100 μM, 24 h, three Gas Tests, read-out: Average of observed methane inhibition (%)): 10%
- Synergistic effect in methane inhibition [2]: synergistic effects were observed

SMILES: C=CCSSCC=C [Diallyl disulfide, diallyl disulfide]
- Methane inhibition in combination with Bromoform (%) ([1]; Compound X 15.6 μM-250 μM (range tested) + bromoform 0.12 μM, 24 h): 88.8%
- Fold increase of Compound X combined with bromoform as compared to Compound X alone ([1]; Compound X 15.6 μM-250 μM (range tested)): 88.8 fold
- inhibition at 15.6 µM ([1]; Methanococcus maripaludis, 24 h, read-out: Methane inhibition of Compound X as a sole compound (%)): 1%
- inhibition at 25 µM [2, 4]: 5%

SMILES: BrCBr [Dibromomethane, dibromomethane]
- inhibition at 0.5 µM [2, 4]: 14.5%
- inhibition at 10 µM [2, 4]: 99%
- Synergistic effect in methane inhibition [2]: synergistic effects were observed

SMILES: IC(I)I [Iodoform, iodoform]
- inhibition at 2 µM ([2]; Bos taurus, sole compound, 2 μM, 24 h, three Gas Tests, read-out: Average of observed methane inhibition (%)): 40.8%
- inhibition at 10 µM ([2]; Bos taurus, sole compound, 10 μM, 24 h, three Gas Tests, read-out: Average of observed methane inhibition (%)): 98.3%

SMILES: C=CCSSSCC=C [Diallyl trisulfide, diallyl trisulfide]
- Methane inhibition in combination with Bromoform (%) ([1]; Compound X 125 μM + bromoform 0.12 μM, 24 h): 27.1%
- Fold increase of Compound X combined with bromoform as compared to Compound X alone ([1]; Compound X 125 μM): 27.1 fold
- inhibition at 125 µM ([1]; Methanococcus maripaludis, Compound X 125 μM alone, 24 h, read-out: Methane inhibition of Compound X as a sole compound (%)): 1%
- inhibition at 25 µM [2, 3]: 11%
- Synergistic effect in methane inhibition [2]: synergistic effects were observed

SMILES: BrC(Br)Br [Bromoform, bromoform]
- Inhibition of methane production by bromoform on its own [1]: too low to inhibit methanogen on its own
- Inhibition of methane production by bromoform on its own ([1]; listed as bromoform): does not reduce or inhibit methane production
- inhibition at 0.1 µM [2, 4]: 1.3%
- inhibition at 1 µM [2, 4]: 92.4%
